By EC50 is commonly meant the concentration giving half of the maximal effect.

Counter-ions that a name gives are not always drawn.

In assay [1] the test system is Pseudotyped HCV GT1b particles (HCVpp), entry into Huh7-high CD81 cells. Put plainly: microbe, parasite or virus in culture. It counts as cell-based, HCV GT1b Con1 strain. To be noted: Hepatitis C virus, GT1B, 72 h, read-out: HCVpp GT-1b (EC50, μM).
Assay [2] has as its system pseudotyped VSV G particles (VSVpp) in Huh7-high CD81 cells. Nature of the assay: microbe, parasite or virus in culture. It counts as cell-based, vesicular stomatitis virus. Conditions: Vesicular stomatitis virus, 72 h, read-out: VSVpp (EC50, μM).

On to `Nc1nc(Nc2cc(Cl)c(-c3ccc(S(=O)(=O)N4CCNCC45CC5)cc3)c(C(F)(F)F)c2)n[nH]1` [Compound 214, N3-(4′-(4,7-diazaspiro[2.5]octan-4-ylsulfonyl)-2-chloro-6-(trifluoromethyl)biphenyl-4-yl)-1H-1,2,4-triazole-3,5-diamine hydrochloride], for which the figures for the EC50 in assay [1] and in assay [2] were 0.048 µM and 3.36 µM, respectively.
For `CC(C)(C)NCc1ccc(-c2c(Cl)cc(Nc3n[nH]c(N)n3)cc2C(F)(F)F)cc1` [Compound 58, N*3*-[4′-(tert-Butylamino-methyl)-2-chloro-6-trifluoromethyl-biphenyl-4-yl]-1H-[1,2,4]triazole-3,5-diamine; hydrochloride], in that order: 0.086 µM and 4.56 µM.
Consider `CN(CCNS(=O)(=O)c1ccc(-c2c(Cl)cc(Nc3n[nH]c(N)n3)cc2C(F)(F)F)cc1)C(=O)OC(C)(C)C` [Compound 209, tert-butyl 2-(4′-(5-amino-1H-1,2,4-triazol-3-ylamino)-2′-chloro-6′-(trifluoromethyl)biphenyl-4-ylsulfonamido)ethyl(methyl)carbamate], for which the concentration for a half-maximal effect (EC50) in assay [1] worked out at 0.005 µM; in assay [2], 7.09 µM.
Take `CN(C)C(=O)c1ccc(-c2c(F)cc(Nc3nc(N)n[nH]3)cc2C(F)(F)F)cc1` [Compound 85, 4′-(5-Amino-2H-[1,2,4]-triazol-3-ylamino)-6′-fluoro-2′-trifluoromethyl-biphenyl-4-carboxylic acid dimethylamide]: the concentration giving a half-maximal response (EC50) in assay [1] is 0.568 µM; in assay [2], greater than 10 µM.
With `CC(C)(C)OC(=O)N1CCCC(S(=O)(=O)c2ccc(-c3c(Cl)cc(Nc4n[nH]c(N)n4)cc3C(F)(F)F)cc2)C1` (stereo not drawn) [Compound 6, 3-[4′-(5-Amino-1H-[1,2,4]triazol-3-ylamino)-2′-chloro-6′-trifluoromethyl-biphenyl-4-sulfonyl]-piperidine-1-carboxylic acid tert-butyl ester], the 50% effective concentration (EC50) in assay [1] was 0.008 µM; in assay [2] it was 2.56 µM.
Turning to `Nc1nc(Nc2cc(Cl)c(-c3ccc(OCCCN4CCOCC4)cc3)c(Cl)c2)n[nH]1` [Compound 283, N*3*-[2,6-Dichloro-4′-(3-morpholin-4-yl-propoxy)-biphenyl-4-yl]-1H-[1,2,4]triazole-3,5-diamine], the concentration giving a half-maximal response (EC50) is 0.523 µM in assay [1] and greater than 10 µM in assay [2].
The corresponding values for `CS(=O)(=O)N1CCOc2ccc(-c3c(Cl)cc(Nc4n[nH]c(N)n4)cc3C(F)(F)F)cc21` [Compound 44, N*3*-[3-Chloro-4-(4-methanesulfonyl-3,4-dihydro-2H-benzo[1,4]oxazin-6-yl)-5-trifluoromethyl-phenyl]-1H-[1,2,4]triazole-3,5-diamine] are 0.236 µM and 4.92 µM.
For the compound `Nc1n[nH]c(Nc2cc(F)c(-c3ccc(S(=O)(=O)N4CCOCC4)cc3)c(C(F)(F)F)c2)n1` [Compound 78, N^5-[6-Fluoro-4′-(morpholine-4-sulfonyl)-2-trifluoromethylbiphenyl-4-yl]-1H-[1,2,4]-triazole-3,5-diamine], the values for the EC50 in assay [1] and in assay [2] were 0.346 µM and 8.18 µM, respectively.
As to `CC(C)(C)NS(=O)(=O)c1cc(-c2c(Cl)cc(Nc3n[nH]c(N)n3)cc2C(F)(F)F)ccc1OC(F)(F)F` [Compound 193, 4′-(5-amino-1H-1,2,4-triazol-3-ylamino)-N-tert-butyl-2′-chloro-4-(trifluoromethoxy)-6′-(trifluoromethyl)biphenyl-3-sulfonamide], the figures for the EC50 in assay [1] and in assay [2] were 0.075 µM and 4.97 µM, respectively.
The corresponding values for `Nc1nc(Nc2cc(Cl)c(-c3ccc(S(=O)(=O)N4CCC[C@H]4C(=O)O)cc3)c(C(F)(F)F)c2)n[nH]1` [Compound 51, (S)-1-[4′-(5-Amino-1H-[1,2,4]triazol-3-ylamino)-2′-chloro-6′-trifluoromethyl-biphenyl-4-sulfonyl]-pyrrolidine-2-carboxylic acid] are 0.678 µM and greater than 10 µM.
The corresponding values for `CC(C)(C)OC(=O)N1CC(COc2ccc(-c3c(Cl)cc(Nc4n[nH]c(N)n4)cc3Cl)cc2)C1` [Compound 260, 3-[4′-(5-Amino-1H-[1,2,4]triazol-3-ylamino)-2′,6′-dichloro-biphenyl-4-yloxymethyl]-azetidine-1-carboxylic acid tert-butyl ester] are 0.022 µM and 17.5 µM.
For `CNCCOc1ccc(-c2c(Cl)cc(Nc3n[nH]c(N)n3)cc2Cl)cc1` [Compound 263, N*3*-[2,6-Dichloro-4′-(2-methylamino-ethoxy)-biphenyl-4-yl]-1H-[1,2,4]triazole-3,5-diamine], in that order: 0.059 µM and 3.75 µM.
Turning to `CC1(O)CCN(S(=O)(=O)c2ccc(-c3c(Cl)cc(Nc4n[nH]c(N)n4)cc3C(F)(F)F)cc2)C1` (stereo not drawn) [Compound 68, 1-[4′-(5-Amino-1H-[1,2,4]triazol-3-ylamino)-6′-chloro-2′-trifluoromethyl-biphenyl-4-sulfonyl]-3-methyl-pyrrolidin-3-ol], the results for the EC50 in assay [1] and in assay [2] were 0.05 µM and 8.73 µM, respectively.
For `Nc1nc(Nc2cc(Cl)c(-c3ccc(S(=O)(=O)NC[C@@H]4CCCN4)cc3)c(C(F)(F)F)c2)n[nH]1` [Compound 27, 4′-(5-Amino-1H-[1,2,4]triazol-3-ylamino)-2′-chloro-6′-trifluoromethyl-biphenyl-4-sulfonic acid ((S)-1-pyrrolidin-2-ylmethyl)-amide; hydrochloride], in that order: 0.052 µM and 30.1 µM.
In the case of `CS(=O)(=O)NCc1cccc(-c2c(Cl)cc(Nc3n[nH]c(N)n3)cc2C(F)(F)F)c1` [Compound 199, N-((4′-(5-amino-1H-1,2,4-triazol-3-ylamino)-2′-chloro-6′-(trifluoromethyl)biphenyl-3-yl)methyl)methanesulfonamide], the half-maximal effective concentration (EC50) in assay [1] was determined as 0.196 µM; in assay [2], 31.8 µM.
As for `CS(=O)(=O)Nc1ccc(-c2c(Cl)cc(Nc3n[nH]c(N)n3)cc2Cl)cc1F` [Compound 46, N-[4′-(5-Amino-1H-[1,2,4]triazol-3-ylamino)-2′,6′-dichloro-3-fluoro-biphenyl-4-yl]-methanesulfonamide], the figures for the EC50 in assay [1] and in assay [2] were 0.414 µM and greater than 10 µM, respectively.
With `Nc1nc(Nc2cc(Cl)c(-c3ccc(S(N)(=O)=O)cc3)c(Cl)c2)n[nH]1` [Compound 253], the EC50 was determined as 0.026 µM in assay [1] and 0.6 µM in assay [2].
The corresponding values for `COc1ccc(-c2c(Cl)cc(Nc3n[nH]c(N)n3)cc2C(F)(F)F)cc1S(=O)(=O)N1CCCC1` [Compound 203, N3-(2-chloro-4′-methoxy-3′-(pyrrolidin-1-ylsulfonyl)-6-(trifluoromethyl)biphenyl-4-yl)-1H-] are 0.008 µM and 10.6 µM.
For `Nc1nc(Nc2cc(Cl)c(-c3cccc(S(N)(=O)=O)c3)c(C(F)(F)F)c2)n[nH]1` [Compound 197, 4′-(5-amino-1H-1,2,4-triazol-3-ylamino)-2′-chloro-6′-(trifluoromethyl)biphenyl-3-sulfonamide 2,2,2-trifluoroacetate], in that order: 0.249 µM and greater than 10 µM.
The corresponding values for `CS(=O)(=O)Nc1cccc(-c2c(Cl)cc(Nc3n[nH]c(N)n3)cc2C(F)(F)F)c1` [Compound 290, N-(4′-(5-amino-1H-1,2,4-triazol-3-ylamino)-2′-chloro-6′-(trifluoromethyl)biphenyl-3-yl)methanesulfonamide] are 0.149 µM and 14.4 µM.
On to `CS(=O)(=O)c1ccc(-c2c(Cl)cc(Nc3n[nH]c(N)n3)cc2Cl)cc1C(F)(F)F` [Compound 14, N*3*-(2,6-Dichloro-4′-methanesulfonyl-3′-trifluoromethyl-biphenyl-4-yl)-1H-[1,2,4]triazole-3,5-diamine], for which the EC50 in assay [1] was 0.052 µM; in assay [2], 0.12 µM.
For `CN(C)S(=O)(=O)c1cccc(-c2c(F)cc(Nc3nc(N)n[nH]3)cc2C(F)(F)F)c1` [Compound 84, 4′-(5-Amino-2H-[1,2,4]-triazol-3-ylamino)-6′-fluoro-2′-trifluoromethyl-biphenyl-3-sulfonic acid dimethylamide], in that order: 0.43 µM and 16.8 µM.
For the compound `CC(C)(C)OC(=O)NCCOc1ccc(-c2c(Cl)cc(Nc3n[nH]c(N)n3)cc2C(F)(F)F)cc1` [Compound 134, {2-[4′-(5-Amino-1H-[1,2,4]triazol-3-ylamino)-6′-chloro-2′-trifluoromethyl-biphenyl-4-yloxy]-ethyl}-carbamic acid tert-butyl ester], the EC50 in assay [1] was 0.081 µM; in assay [2], greater than 10 µM.
For `CNS(=O)(=O)c1cccc(-c2c(Cl)cc(Nc3n[nH]c(N)n3)cc2Cl)c1` [Compound 119, 4′-(5-Amino-1H-[1,2,4]triazol-3-ylamino)-2′,6′-dichloro-biphenyl-3-sulfonic acid methylamide], in that order: 0.046 µM and 3.94 µM.
As to `C[C@@H](NS(C)(=O)=O)c1ccc(-c2c(Cl)cc(Nc3n[nH]c(N)n3)cc2C(F)(F)F)cc1` [Compound 24, N—{(R)-1-[4′-(5-Amino-1H-[1,2,4]triazol-3-ylamino)-2′-chloro-6′-trifluoromethyl-biphenyl-4-yl]-ethyl}-methanesulfonamide], the figures for the EC50 in assay [1] and in assay [2] were 0.058 µM and greater than 10 µM, respectively.
The corresponding values for `COc1ccc(-c2c(Cl)cc(Nc3n[nH]c(N)n3)cc2C(F)(F)F)cc1S(=O)(=O)NC1(C)CN(C(=O)OC(C)(C)C)C1` [Compound 212, tert-butyl 3-(4′-(5-amino-1H-1,2,4-triazol-3-ylamino)-2′-chloro-4-methoxy-6′-(trifluoromethyl)biphenyl-3-ylsulfonamido)-3-methylazetidine-1-carboxylate] are 0.005 µM and 1.42 µM.
The corresponding values for `CC(C)(C)OC(=O)N1CCCC1CCOc1ccc(-c2c(Cl)cc(Nc3n[nH]c(N)n3)cc2Cl)cc1` (stereo not drawn) [Compound 266, 2-{2-[4′-(5-Amino-1H-[1,2,4]triazol-3-ylamino)-2′,6′-dichloro-biphenyl-4-yloxy]-ethyl}-pyrrolidine-1-carboxylic acid tert-butyl ester] are 0.103 µM and greater than 10 µM.

The record behind these values is patent US9693997B2, “Antiviral compounds” (priority 2013, dated 2017).
